Data published in PubChem BioAssay AID248 (DTP/NCI, 2004).
“And” between values parts separate entries of the source, which are not always exact repeats. Equal values may be shown once. Toxic doses and inconclusive results are not listed.

System: L1210 leukemia ip in BDF1 mice, survival T/C
Assay: NCI In Vivo Anticancer Drug Screen. Data for tumor model L1210 Leukemia (intraperitoneal) in B6D2F1 (BDF1) mice
Settings: higher = longer survival
Outline: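 Antitumor effect is assessed in tumor-bearing animals. Survival in the compound arm is compared with a vehicle-dosed control arm and expressed as their quotient.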

[1] = endpoint: mean survival time, dose: 50.0 mg/kg/injection, schedule: Q01DX001 (ip), vehicle: saline
[2] = endpoint: mean survival time, dose: 200.0 mg/kg/injection, schedule: Q01DX001 (ip), vehicle: saline
[3] = endpoint: mean survival time, dose: 400.0 mg/kg/injection, schedule: Q01DX001 (ip), vehicle: saline
[4] = endpoint: mean survival time, dose: 100.0 mg/kg/injection, schedule: Q01DX001 (ip), vehicle: Klucel (hydroxypropylcellulose) (HPC)
[5] = endpoint: mean survival time, dose: 100.0 mg/kg/injection, schedule: Q04DX003 (ip), vehicle: Klucel (hydroxypropylcellulose) (HPC)
[6] = endpoint: mean survival time, dose: 200.0 mg/kg/injection, schedule: Q01DX001 (ip), vehicle: Klucel (hydroxypropylcellulose) (HPC)
[7] = endpoint: mean survival time, dose: 200.0 mg/kg/injection, schedule: Q04DX003 (ip), vehicle: Klucel (hydroxypropylcellulose) (HPC)
[8] = endpoint: mean survival time, dose: 400.0 mg/kg/injection, schedule: Q04DX003 (ip), vehicle: Klucel (hydroxypropylcellulose) (HPC)

In the case of `COc1cc(NS(C)(=O)=O)ccc1Nc1c2ccccc2nc2ccccc12`, the T/C (endpoint: mean survival time, dose: 0.25 mg/kg/injection, schedule: Q03HX008 (ip), vehicle: other) is reported as 120 % of control, the T/C (endpoint: mean survival time, dose: 0.38 mg/kg/injection, schedule: Q01DX009 (ip), vehicle: saline with Tween-80) is reported as 185 % of control and the T/C (endpoint: mean survival time, dose: 0.75 mg/kg/injection, schedule: Q01DX009 (sc), vehicle: saline) is reported as 118 % of control. For the same compound, the T/C (endpoint: mean survival time, dose: 1.0 mg/kg/injection, schedule: Q01DX009 (ip), vehicle: Klucel (hydroxypropylcellulose) (HPC)) was 160 % of control, the T/C (endpoint: mean survival time, dose: 1.25 mg/kg/injection, schedule: Q01DX009 (sc), vehicle: saline) was 112 % of control and the T/C (endpoint: mean survival time, dose: 1.35 mg/kg/injection, schedule: Q01DX009 (ip), vehicle: acetone) was 151 % of control. For the same compound, the T/C (endpoint: mean survival time, dose: 1.5 mg/kg/injection, schedule: Q01DX009 (sc), vehicle: saline) was 113 % of control, the T/C (endpoint: mean survival time, dose: 1.56 mg/kg/injection, schedule: Q01DX009 (ip), vehicle: saline with Tween-80) was 236 % of control and the T/C (endpoint: mean survival time, dose: 1.8 mg/kg/injection, schedule: Q01DX009 (ip), vehicle: water) was 150 % of control. For the same compound, the T/C (endpoint: mean survival time, dose: 1.9 mg/kg/injection, schedule: Q01DX001 (ip), vehicle: other) was 116 % of control, the T/C (endpoint: mean survival time, dose: 2.0 mg/kg/injection, schedule: Q03HX008 (ip), vehicle: other) was 203 % of control and the T/C (endpoint: mean survival time, dose: 2.05 mg/kg/injection, schedule: Q01DX009 (ip), vehicle: Klucel (hydroxypropylcellulose) (HPC)) was 155 % of control. The T/C (endpoint: mean survival time, dose: 2.05 mg/kg/injection, schedule: Q01DX009 (ip), vehicle: acetone) was 187 % of control, the T/C (endpoint: mean survival time, dose: 2.5 mg/kg/injection, schedule: Q01DX009 (sc), vehicle: saline) was 110 % of control and 121 % of control and the T/C (endpoint: mean survival time, dose: 3.0 mg/kg/injection, schedule: Q01DX009 (ip), vehicle: Klucel (hydroxypropylcellulose) (HPC)) was 176 % of control. The T/C (endpoint: mean survival time, dose: 3.0 mg/kg/injection, schedule: Q01DX009 (ip), vehicle: water) was 174 % of control, the T/C (endpoint: mean survival time, dose: 3.0 mg/kg/injection, schedule: Q01DX009 (sc), vehicle: saline) was 114 % of control and the T/C (endpoint: mean survival time, dose: 3.07 mg/kg/injection, schedule: Q01DX009 (ip), vehicle: Klucel (hydroxypropylcellulose) (HPC)) was 157 % of control. The T/C (endpoint: mean survival time, dose: 3.07 mg/kg/injection, schedule: Q01DX009 (ip), vehicle: acetone) was 188 % of control, the T/C (endpoint: mean survival time, dose: 3.12 mg/kg/injection, schedule: Q01DX009 (ip), vehicle: acetone) was 188 % of control and the T/C (endpoint: mean survival time, dose: 3.12 mg/kg/injection, schedule: Q01DX009 (ip), vehicle: saline with Tween-80) was 178 % of control and 216 % of control. For the same compound, the T/C (endpoint: mean survival time, dose: 3.75 mg/kg/injection, schedule: Q01DX001 (ip), vehicle: other) was 124 % of control, the T/C (endpoint: mean survival time, dose: 4.0 mg/kg/injection, schedule: Q01DX009 (ip), vehicle: Klucel (hydroxypropylcellulose) (HPC)) was 154 % of control and the T/C (endpoint: mean survival time, dose: 5.0 mg/kg/injection, schedule: Q01DX009 (ip), vehicle: saline with Tween-80) was 153 % of control. For the same compound, the T/C (endpoint: mean survival time, dose: 5.0 mg/kg/injection, schedule: Q01DX009 (ip), vehicle: water) was 113 % of control, the T/C (endpoint: mean survival time, dose: 5.0 mg/kg/injection, schedule: Q01DX009 (sc), vehicle: saline) was 123 % of control and the T/C (endpoint: mean survival time, dose: 6.0 mg/kg/injection, schedule: Q01DX009 (ip), vehicle: Klucel (hydroxypropylcellulose) (HPC)) was 150 % of control. The T/C (endpoint: mean survival time, dose: 6.25 mg/kg/injection, schedule: Q01DX009 (ip), vehicle: acetone) was 186 % of control, the T/C (endpoint: mean survival time, dose: 7.5 mg/kg/injection, schedule: Q04DX003 (ip), vehicle: other) was 156 % of control and the T/C (endpoint: mean survival time, dose: 8.0 mg/kg/injection, schedule: Q01DX009 (ip), vehicle: other) was 91 % of control. For the same compound, the T/C (endpoint: mean survival time, dose: 8.4 mg/kg/injection, schedule: Q01DX009 (ip), vehicle: water) was 89 % of control, the T/C (endpoint: mean survival time, dose: 10.0 mg/kg/injection, schedule: Q01DX009 (ip), vehicle: saline with Tween-80) was 207 % of control and the T/C (endpoint: mean survival time, dose: 12.5 mg/kg/injection, schedule: Q01DX009 (ip), vehicle: acetone) was 90 % of control. The T/C (endpoint: mean survival time, dose: 12.5 mg/kg/injection, schedule: Q01DX009 (ip), vehicle: saline with Tween-80) was 93 % of control, the T/C (endpoint: mean survival time, dose: 12.5 mg/kg/injection, schedule: Q01DX009 (ip), vehicle: saline) was 103 % of control and the T/C (endpoint: mean survival time, dose: 15.0 mg/kg/injection, schedule: Q04DX003 (ip), vehicle: other) was 294 % of control. For the same compound, the T/C (endpoint: mean survival time, dose: 18.75 mg/kg/injection, schedule: Q01DX001 (ip), vehicle: saline with Tween-80) was 160 % of control, the T/C (endpoint: mean survival time, dose: 25.0 mg/kg/injection, schedule: Q01DX001 (ip), vehicle: Klucel (hydroxypropylcellulose) (HPC)) was 152 % of control and the T/C (endpoint: mean survival time, dose: 30.0 mg/kg/injection, schedule: Q01DX001 (ip), vehicle: Klucel (hydroxypropylcellulose) (HPC)) was 254 % of control. For the same compound, the T/C (endpoint: mean survival time, dose: 30.0 mg/kg/injection, schedule: Q01DX001 (ip), vehicle: other) was 91 % of control, the T/C (endpoint: mean survival time, dose: 37.5 mg/kg/injection, schedule: Q01DX001 (ip), vehicle: saline with Tween-80) was 178 % of control and 270 % of control and the T/C (endpoint: mean survival time, dose: 45.0 mg/kg/injection, schedule: Q01DX001 (ip), vehicle: Klucel (hydroxypropylcellulose) (HPC)) was 160 % of control. The T/C [1] was 158 % of control and 175 % of control, the T/C (endpoint: mean survival time, dose: 60.0 mg/kg/injection, schedule: Q01DX001 (ip), vehicle: Klucel (hydroxypropylcellulose) (HPC)) was 160 % of control and 255 % of control and the T/C (endpoint: mean survival time, dose: 75.0 mg/kg/injection, schedule: Q01DX001 (ip), vehicle: saline) was 202 % of control and 236 % of control. For the same compound, the T/C (endpoint: mean survival time, dose: 150.0 mg/kg/injection, schedule: Q01DX001 (ip), vehicle: saline with Tween-80) was 232 % of control, the T/C (endpoint: median survival time, dose: 1.0 mg/kg/injection, schedule: Q01DX009 (sc), vehicle: other) was 121 % of control and the T/C (endpoint: median survival time, dose: 2.0 mg/kg/injection, schedule: Q01DX009 (oral), vehicle: other) was 102 % of control. For the same compound, the T/C (endpoint: median survival time, dose: 4.0 mg/kg/injection, schedule: Q01DX009 (oral), vehicle: other) was 109 % of control, the T/C (endpoint: median survival time, dose: 8.0 mg/kg/injection, schedule: Q01DX009 (oral), vehicle: other) was 120 % of control and the T/C (endpoint: median survival time, dose: 8.0 mg/kg/injection, schedule: Q01DX009 (sc), vehicle: other) was 98 % of control.

`Cc1cc(C)c(C(=O)CC(=O)c2cccnc2)c(C)c1` was tested, and the T/C (endpoint: mean survival time, dose: 25.0 mg/kg/injection, schedule: Q01DX001 (ip), vehicle: saline) was 102 % of control, the T/C [1] was 101 % of control and 104 % of control and the T/C (endpoint: mean survival time, dose: 50.0 mg/kg/injection, schedule: Q04DX003 (ip), vehicle: saline) was 97 % of control. For the same compound, the T/C (endpoint: mean survival time, dose: 100.0 mg/kg/injection, schedule: Q01DX001 (ip), vehicle: saline) was 102 % of control and 103 % of control, the T/C (endpoint: mean survival time, dose: 100.0 mg/kg/injection, schedule: Q04DX003 (ip), vehicle: saline) was 97 % of control and the T/C [2] was 97 % of control and 98 % of control. For the same compound, the T/C (endpoint: mean survival time, dose: 200.0 mg/kg/injection, schedule: Q04DX003 (ip), vehicle: saline) was 98 % of control and the T/C [3] was 103 % of control.

For `CCC(=O)Nc1cccc(OC(C)=O)c1`, the T/C (endpoint: mean survival time, dose: 100.0 mg/kg/injection, schedule: Q01DX009 (ip), vehicle: saline with Tween-80) was 91 % of control, the T/C (endpoint: mean survival time, dose: 200.0 mg/kg/injection, schedule: Q01DX009 (ip), vehicle: saline with Tween-80) was 90 % of control and the T/C (endpoint: mean survival time, dose: 400.0 mg/kg/injection, schedule: Q01DX009 (ip), vehicle: saline with Tween-80) was 107 % of control.

In the case of `N=C(N=C(Cc1ccccc1)c1ccccc1)c1ccccc1`, the T/C [4] is reported as 92 % of control, the T/C [5] is reported as 104 % of control and the T/C [6] is reported as 92 % of control. For the same compound, the T/C [7] was 96 % of control, the T/C (endpoint: mean survival time, dose: 400.0 mg/kg/injection, schedule: Q01DX001 (ip), vehicle: Klucel (hydroxypropylcellulose) (HPC)) was 94 % of control and the T/C [8] was 91 % of control.

With `O=C(CI)Nc1cccc(NC(=O)C(=O)O)c1` the T/C (endpoint: mean survival time, dose: 20.0 mg/kg/injection, schedule: Q04DX003 (ip), vehicle: Klucel (hydroxypropylcellulose) (HPC)) was 95 % of control and the T/C (endpoint: mean survival time, dose: 40.0 mg/kg/injection, schedule: Q04DX003 (ip), vehicle: Klucel (hydroxypropylcellulose) (HPC)) was 101 % of control.

For `CC(=S)NC(=O)Nc1cccc2ccccc12`, the T/C [4] was 88 % of control and the T/C [6] was 91 % of control.

`O=C(O)c1ccccc1C(=O)Nc1ccc(F)cc1` was tested, and the T/C [5] was 103 % of control, the T/C [2] was 106 % of control and the T/C [7] was 87 % of control. The T/C [3] was 96 % of control and the T/C [8] was 94 % of control.

`CN=C(NCCc1ccccc1)c1ccc(NC(=O)c2ccc(C(=O)Nc3ccc(C(=NC)NCCc4ccccc4)cc3)cc2)cc1` was tested, and the T/C (endpoint: mean survival time, dose: 3.75 mg/kg/injection, schedule: Q01DX Z (ip), vehicle: saline) was 102 % of control and the T/C (endpoint: mean survival time, dose: 7.5 mg/kg/injection, schedule: Q01DX Z (ip), vehicle: saline) was 105 % of control.

`CN(C)c1cc2c3ccccc3ccc2c2ccccc12` was tested, and the T/C (endpoint: mean survival time, dose: 100.0 mg/kg/injection, schedule: Q01DX001 (ip), vehicle: olive oil, sesame oil, peanut oil) was 100 % of control, the T/C (endpoint: mean survival time, dose: 200.0 mg/kg/injection, schedule: Q01DX001 (ip), vehicle: olive oil, sesame oil, peanut oil) was 103 % of control and the T/C (endpoint: mean survival time, dose: 400.0 mg/kg/injection, schedule: Q01DX001 (ip), vehicle: olive oil, sesame oil, peanut oil) was 102 % of control.
